Values quoted from earlier work in patent publication US9770423B2, “Modulation sAPP, sAAPα and BDNF levels in individuals diagnosed with FXS and ASD” (Indiana University Research and Technology Corp., priority 2012, dated 2017).

Key:
fmr1 knockout mouse = details: literature; cited from earlier work
subjects with FXS = details: cited from earlier work
[1] = tested on: drinking-in-the-dark mouse model; details: cited from earlier work
adults with FXS = details: single dose, cited from earlier work
[2] = tested on: cerebellar granule cells from FMR1 knockout mice; details: cultured cerebellar granule cells from FMR1 knockout mice; cited from earlier work
[3] = tested on: persons with FXS and comorbid ASD; details: cited from earlier work
males with FXS = details: cited from earlier work

For `NC[C@H](CC(=O)O)c1ccc(Cl)cc1` (single isomer, unassigned) [STX209], the “effect on phenotype of fmr1 knockout mice” value (from here on “effect on phenotype”) (fmr1 knockout mouse) is listed as “correction of aberrant protein synthesis and dendritic spine abnormalities”, the “ABC-SW and VABS Socialization, post-hoc subset” value (subjects with FXS; 27 subject subset with baseline ABC-SW score of ≧8) is listed as “significant STX209-associated improvement” and the “primary outcome measure, ABC Irritability (ABC-I) subscale” value (subjects with FXS; 63 subjects aged 6 to 40 years with FXS) is listed as “not associated with improvement”. For the same molecule, the “Social Avoidance scale (ABC-SA), post-hoc analysis” value (subjects with FXS; 63 subjects with FXS) was “significant group-wide improvement”, the “global measures (CGI-I, CGI-S), other ABC subscales, Visual Analog Scale” value (subjects with FXS; 63 subjects with FXS) was “Group-wide effects were also not noted” and the subjects reporting sedation (subjects with FXS; 63 subjects with FXS) was 8%.

In the case of `Cc1cccc(C#Cc2ccccc2)n1` [MPEP, 2-methyl-6-(phenylethynyl)-pyridine], the “effect on phenotype” value (fmr1 knockout mouse) is given as “reverse phenotypic characteristics, including audiogenic seizures, altered pre-pulse inhibition (PPI), and open field hyperactivity”.

In the case of `Cc1nc(C#Cc2cccnc2)cs1` [MTEP, 3-((2-Methyl-4-thiazolyl)ethynyl)pyridine], the alcohol intake [1] is given as “reduced alcohol intake”.

For `Oc1noc2c1CCNC2` [gaboxadol], the “effect on phenotype” value (fmr1 knockout mouse) is given as “restored neuron excitability deficits in the amygdala, reduced hyperactivity, and reduced PPI deficits”.

For `CN1CC(=O)NC1=NC(=O)Nc1cccc(Cl)c1` [fenobam], the “subjects experiencing mild sedation” value (adults with FXS; 3 of 12 adults with FXS) is listed as 25%, the “subjects who experienced clinical benefit” value (adults with FXS; 9 of 12 adults with FXS, reductions in hyperactivity and anxiety) is listed as 75% and the pharmacokinetics (adults with FXS; 12 adults with FXS) is listed as “variable pharmacokinetics”. The tolerability (adults with FXS; 12 adults with FXS) was “good tolerability”.

In the case of `CC(=O)[C@H]1CC[C@H]2[C@@H]3CC[C@H]4C[C@H](O)CC[C@]4(C)[C@H]3C(=O)C[C@]12C` [alphaxalone], the “effect on phenotype” value (fmr1 knockout mouse) is given as “reductions in anxiety and rescue of audiogenic seizures”.

For `NCCS(=O)(=O)O` [taurine], the “effect on phenotype” value (fmr1 knockout mouse) is given as “Improvements in memory acquisition and retention”.

In the case of `CC12CC3CC(C)(C1)CC(N)(C3)C2` [memantine], the “dendritic spine development and synapse formation” value [2] is given as “correction of dendritic spine development and synapse formation”, the “subjects with clinical response (CGI-I very much improved or much improved)” value ([3]; four of 6 persons with FXS and comorbid ASD) is given as 67% and the “subjects with treatment limiting irritability” value ([3]; of 6 persons) is given as “Two subjects”.

For `COC(=O)N1CC[C@@H]2[C@H]1CCC[C@@]2(O)C#Cc1cccc(C)c1` [AFQ056], the “response in subset with full FMR1 gene methylation (ABC, CGI-I, Visual Analogue Scale, Repetitive Behavior Scale-Revised)” value (males with FXS; 7 subject subset) is listed as “significant response to AFQ056 compared to placebo” and the group treatment effect (males with FXS; 30 males with FXS aged 18 to 35 years) is listed as “not associated with significant group treatment effect”.
